Data on two compounds can be found in ChEMBL document CHEMBL1129878, “Synthesis of 5-epiaragusterol A” (Bioorg Med Chem Lett, 1997).

Structures are written as SMILES. In brackets after ≈: the same amount, converted by molar mass.

One test concerns L1210. The test can be described thus: The compound was tested in vivo for the potent antitumor activity toward L1210 leukemia in mice at the dose of 1.6 (mg/kg). Format: functional, Mus musculus.
Another test deals with KB. In words: The compound was tested for the inhibitory activity against the proliferation of KB cells. The format is functional, cell-based. Conditions: Homo sapiens.

In the test on L1210, `C[C@@H]1C[C@H]1[C@H](C)C[C@@H](O)[C@@]1([C@H]2CC[C@H]3[C@@H]4CC[C@H]5CC(=O)CC[C@]5(C)[C@H]4C[C@@H](O)[C@]23C)CO1` [ARAGUSTEROL A] gave a T/C of 220%. In the test with KB, this compound returned an IC50 of 0.042 µg/mL (≈ 0.0916 µM).

With `C[C@@H]1C[C@H]1[C@H](C)C[C@@H](O)[C@@]1([C@H]2CC[C@H]3[C@@H]4CC[C@@H]5CC(=O)CC[C@]5(C)[C@H]4C[C@@H](O)[C@]23C)CO1` [5-EPIARAGUSTEROL A], inhibition with KB was half-maximal at 0.041 µg/mL (≈ 0.0894 µM) (IC50).

A word on the T/C: it is the ratio of treated to control. A word on the IC50: it is the midpoint of a concentration-inhibition curve. Read a high IC50 as weaker potency in that assay.
